By IC50 is commonly meant the point on the concentration scale where inhibition reaches its midpoint.

IDO1, sequence (P14902 whole entry): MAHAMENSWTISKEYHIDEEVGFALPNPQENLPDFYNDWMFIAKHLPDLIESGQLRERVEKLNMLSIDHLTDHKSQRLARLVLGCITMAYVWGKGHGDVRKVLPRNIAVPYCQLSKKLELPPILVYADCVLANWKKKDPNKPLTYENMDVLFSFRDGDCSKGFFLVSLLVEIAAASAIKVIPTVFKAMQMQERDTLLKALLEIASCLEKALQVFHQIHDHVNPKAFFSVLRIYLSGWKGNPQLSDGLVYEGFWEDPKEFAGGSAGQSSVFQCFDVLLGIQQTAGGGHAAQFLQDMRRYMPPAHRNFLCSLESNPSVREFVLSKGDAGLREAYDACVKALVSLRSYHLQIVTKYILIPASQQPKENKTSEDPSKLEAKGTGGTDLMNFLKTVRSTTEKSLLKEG

This assay has as its target IDO1 (Homo sapiens, UniProt P14902). The assay is described as follows: IDO1 Cellular Assay in HeLa Cells Stimulated with IFNγ. Conditions: read-out: HeLa Cell Potency, IC50. Format: cell-based.
For `Cc1cccc(N2CCN(C(=O)Cn3nc(C(=O)N4CCN(CCO)CC4)c4c3CCC4)CC2)c1C` [Example 162, 1-[4-(2,3-dimethylphenyl)piperazin-1-yl]-2-{3-[4-(2-hydroxyethyl)piperazine-1-carbonyl]-5,6-dihydrocyclopenta[c]pyrazol-1(4H)-yl}ethan-1-one], the IC50 is 10.5 nM.

Regarding `Cc1cccc(N2CCN(C(=O)Cn3nc(C(=O)N4CCC5(CC4)COC(=O)N5)c4c3CCC4)CC2)c1C` [Example 163, 8-(1-{2-[4-(2,3-dimethylphenyl)piperazin-1-yl]-2-oxoethyl}-1,4,5,6-tetrahydrocyclopenta[c]pyrazole-3-carbonyl)-3-oxa-1,8-diazaspiro[4.5] decan-2-one], the concentration for half-maximal inhibition (IC50) stood at 10.3 nM.

Regarding `Cc1cccc(N2CCN(C(=O)Cn3nc(C(=O)N4CCC(N5CCCC5)CC4)c4c3CCC4)CC2)c1C` [Example 164], the concentration for half-maximal inhibition (IC50) was 68.9 nM.

For the compound `Cc1cccc(N2CCN(C(=O)Cn3nc(C(=O)N4CCN(C)[C@@H](C)C4)c4c3CCC4)CC2)c1C` [Example 166, 1-[4-(2,3-dimethylphenyl)piperazin-1-yl]-2-{3-[(3S)-3,4-dimethylpiperazine-1-carbonyl]-5,6-dihydrocyclopenta[c]pyrazol-1(4H)-yl}ethan-1-one], the IC50 was 6.18 nM.

In the case of `Cc1cccc(N2CCN(C(=O)Cn3nc(C(=O)N4CCC(O)(C(N)=O)CC4)c4c3CCC4)CC2)c1C` [Example 169, 1-(1-{2-[4-(2,3-dimethylphenyl)piperazin-1-yl]-2-oxoethyl}-1,4,5,6-tetrahydrocyclopenta[c]pyrazole-3-carbonyl)-4-hydroxypiperidine-4-carboxamide], the concentration for half-maximal inhibition (IC50) was determined as 30.4 nM.

For the compound `Cc1cccc(N2CCN(C(=O)Cn3nc(C(=O)N4CCC(O)(CCC(F)(F)F)CC4)c4c3CCC4)CC2)c1C` [Example 170, 1-[4-(2,3-dimethylphenyl)piperazin-1-yl]-2-{3-[4-hydroxy-4-(3,3,3-trifluoropropyl)piperidine-1-carbonyl]-5,6-dihydrocyclopenta[c]pyrazol-1(4H)-yl}ethan-1-one], the IC50 was 6.31 nM.

For the compound `Cc1cccc(N2CCN(C(=O)Cn3nc(C(=O)N4CCC5(C4)CC5(F)F)c4c3CCC4)CC2)c1C` (stereo not shown) [Example 171, 2-[3-(1,1-difluoro-5-azaspiro[2.4]heptane-5-carbonyl)-5,6-dihydrocyclopenta[c]pyrazol-1(4H)-yl]-1-[4-(2,3-dimethylphenyl)piperazin-1-yl]ethan-1-one], the concentration for half-maximal inhibition (IC50) was determined as 5.79 nM.

With `Cc1cccc(N2CCN(C(=O)Cn3nc(C(=O)N4CCC5(CCNC5)CC4)c4c3CCC4)CC2)c1C` [Example 175, 2-[3-(2,8-diazaspiro[4.5]decane-8-carbonyl)-5,6-dihydrocyclopenta[c]pyrazol-1(4H)-yl]-1-[4-(2,3-dimethylphenyl)piperazin-1-yl]ethan-1-one], the IC50 came out at 498 nM.

For the compound `Cc1cccc(N2CCN(C(=O)Cn3nc(C(=O)N4CCC(C)(N)CC4)c4c3CCC4)CC2)c1C` [Example 176, 2-[3-(4-amino-4-methylpiperidine-1-carbonyl)-5,6-dihydrocyclopenta[c]pyrazol-1(4H)-yl]-1-[4-(2,3-dimethylphenyl)piperazin-1-yl]ethan-1-one], the IC50 amounted to 476 nM.

Take `Cc1cccc(N2CCN(C(=O)Cn3nc(C(=O)N4CCC5(CCCN5)CC4)c4c3CCC4)CC2)c1C` [Example 177, 2-[3-(1,8-diazaspiro[4.5]decane-8-carbonyl)-5,6-dihydrocyclopenta[c]pyrazol-1(4H)-yl]-1-[4-(2,3-dimethylphenyl)piperazin-1-yl]ethan-1-one]: the IC50 was 405 nM.

In the case of `Cc1cccc(N2CCN(C(=O)Cn3nc(C(=O)N4CCC(F)(CN)CC4)c4c3CCC4)CC2)c1C` [Example 178, 2-{3-[4-(aminomethyl)-4-fluoropiperidine-1-carbonyl]-5,6-dihydrocyclopenta[c]pyrazol-1(4H)-yl}-1-[4-(2,3-dimethylphenyl)piperazin-1-yl]ethan-1-one], the concentration for half-maximal inhibition (IC50) was found to be 16.4 nM.

Take `Cc1cccc(N2CCN(C(=O)Cn3nc(C(=O)N4CCC(C)(CN)CC4)c4c3CCC4)CC2)c1C` [Example 179, 2-{3-[4-(aminomethyl)-4-methylpiperidine-1-carbonyl]-5,6-dihydrocyclopenta[c]pyrazol-1(4H)-yl}-1-[4-(2,3-dimethylphenyl)piperazin-1-yl]ethan-1-one]: the IC50 worked out at 82.8 nM.

With `Cc1cccc(N2CCN(C(=O)Cn3nc(C(=O)N4CCC(CN)CC4)c4c3CCC4)CC2)c1C` [Example 180, 2-{3-[4-(aminomethyl)piperidine-1-carbonyl]-5,6-dihydrocyclopenta[c]pyrazol-1(4H)-yl}-1-[4-(2,3-dimethylphenyl)piperazin-1-yl]ethan-1-one], the IC50 is 11.6 nM.

As for `Cc1cccc(N2CCN(C(=O)Cn3nc(C(=O)N4CCC5(CC4)COCC5O)c4c3CCC4)CC2)c1C` (stereo not shown) [Example 182, 1-[4-(2,3-dimethylphenyl)piperazin-1-yl]-2-[3-(4-hydroxy-2-oxa-8-azaspiro[4.5]decane-8-carbonyl)-5,6-dihydrocyclopenta[c]pyrazol-1(4H)-yl]ethan-1-one], the concentration for half-maximal inhibition (IC50) amounted to 6.25 nM.

Consider `Cc1cccc(N2CCN(C(=O)Cn3nc(C(=O)N4CCC5(CCCC(=O)N5)CC4)c4c3CCC4)CC2)c1C` [Example 183, 9-(1-{2-[4-(2,3-dimethylphenyl)piperazin-1-yl]-2-oxoethyl}-1,4,5,6-tetrahydrocyclopenta[c]pyrazole-3-carbonyl)-1,9-diazaspiro[5.5]undecan-2-one], for which the IC50 turned out to be 3.22 nM.

Consider `Cc1cccc(N2CCN(C(=O)Cn3nc(C(=O)N4CCC5(CC4)CNC(=O)N5)c4c3CCC4)CC2)c1C` [Example 184, 8-(1-{2-[4-(2,3-dimethylphenyl)piperazin-1-yl]-2-oxoethyl}-1,4,5,6-tetrahydrocyclopenta[c]pyrazole-3-carbonyl)-1,3,8-triazaspiro[4.5]decan-2-one], for which the IC50 is 80.2 nM.

For `CC(=O)NC1CCCN(C(=O)c2nn(CC(=O)N3CCN(c4cccc(C)c4C)CC3)c3c2CCC3)C1` (stereo not shown) [Example 185, N-[1-(1-{2-[4-(2,3-dimethylphenyl)piperazin-1-yl]-2-oxoethyl}-1,4,5,6-tetrahydrocyclopenta[c]pyrazole-3-carbonyl)piperidin-3-yl]acetamide], the concentration for half-maximal inhibition (IC50) is 120 nM.

As to `Cc1cccc(N2CCN(C(=O)Cn3nc(C(=O)N4CCCC(N(C)C)C4)c4c3CCC4)CC2)c1C` (stereo not shown) [Example 186, 2-{3-[3-(dimethylamino)piperidine-1-carbonyl]-5,6-dihydrocyclopenta[c]pyrazol-1(4H)-yl}-1-[4-(2,3-dimethylphenyl)piperazin-1-yl]ethan-1-one], the IC50 is 37.9 nM.

Regarding `Cc1cccc(N2CCN(C(=O)Cn3nc(C(=O)N4CCCC(N5CCCC5)C4)c4c3CCC4)CC2)c1C` (stereo not shown) [Example 187, 1-[4-(2,3-dimethylphenyl)piperazin-1-yl]-2-{3-[3-(pyrrolidin-1-yl)piperidine-1-carbonyl]-5,6-dihydrocyclopenta[c]pyrazol-1(4H)-yl}ethan-1-one], the concentration for half-maximal inhibition (IC50) was determined as 76.1 nM.

Take `Cc1cccc(N2CCN(C(=O)Cn3nc(C(=O)N4CCC(NC(N)=O)CC4)c4c3CCC4)CC2)c1C` [Example 188, N-[1-(1-{2-[4-(2,3-dimethylphenyl)piperazin-1-yl]-2-oxoethyl}-1,4,5,6-tetrahydrocyclopenta[c]pyrazole-3-carbonyl)piperidin-4-yl]urea]: the concentration for half-maximal inhibition (IC50) came to 9.76 nM.

As for `Cc1cccc(N2CCN(C(=O)Cn3nc(C(=O)N4CCC(O)(C(F)(F)F)CC4)c4c3CCC4)CC2)c1C` [Example 189, 1-[4-(2,3-dimethylphenyl)piperazin-1-yl]-2-{3-[4-hydroxy-4-(trifluoromethyl)piperidine-1-carbonyl]-5,6-dihydrocyclopenta[c]pyrazol-1(4H)-yl}ethan-1-one], the concentration for half-maximal inhibition (IC50) worked out at 4.53 nM.

With `Cc1cccc(N2CCN(C(=O)Cn3nc(C(=O)N4CCC5(CC4)CNC(=O)CO5)c4c3CCC4)CC2)c1C` [Example 190, 9-(1-{2-[4-(2,3-dimethylphenyl)piperazin-1-yl]-2-oxoethyl}-1,4,5,6-tetrahydrocyclopenta[c]pyrazole-3-carbonyll)-1-oxa-4,9-diazaspiro[5.5]undecan-3-one], the half-inhibitory concentration (IC50) was 1.62 nM.

Consider `Cc1cccc(N2CCN(C(=O)Cn3nc(C(=O)N4CCN5CCCC[C@H]5C4)c4c3CCC4)CC2)c1C` [Example 191, 1-[4-(2,3-dimethylphenyl)piperazin-1-yl]-2-{3-[(9aS)-octahydro-2H-pyrido[1,2-a]pyrazine-2-carbonyl]-5,6-dihydrocyclopenta[c]pyrazol-1(4H)-yl}ethan-1-one], for which the half-maximal inhibitory concentration (IC50) is 2.92 nM.

In the case of `Cc1cccc(N2CCN(C(=O)Cn3nc(C(=O)N4CCCC5(CCNC5=O)C4)c4c3CCC4)CC2)c1C` (stereo not shown) [Example 193, 7-(1-{2-[4-(2,3-dimethylphenyl)piperazin-1-yl]-2-oxoethyl}-1,4,5,6-tetrahydrocyclopenta[c]pyrazole-3-carbonyl)-2,7-diazaspiro[4.5]decan-1-one], the IC50 was 75 nM.

Take `CC(=O)NC1CCN(C(=O)c2nn(CC(=O)N3CCN(c4cccc(C)c4C)CC3)c3c2CCC3)C1` (stereo not shown) [Example 194, N-[1-(1-{2-[4-(2,3-dimethylphenyl)piperazin-1-yl]-2-oxoethyl}-1,4,5,6-tetrahydrocyclopenta[c]pyrazole-3-carbonyl)pyrrolidin-3-yl]acetamide]: the half-inhibitory concentration (IC50) is 40 nM.

For `Cc1cccc(N2CCN(C(=O)Cn3nc(C(=O)N4CCNCC4)c4c3CCC4)CC2)c1C` [Example 195, 1-[4-(2,3-dimethylphenyl)piperazin-1-yl]-2-[3-(piperazin-1-carbonyl)-5,6-dihydrocyclopenta[c]pyrazol-1(4H)-yl]ethan-1-one], the half-inhibitory concentration (IC50) is 189 nM.

For the compound `Cc1cccc(N2CCN(C(=O)Cn3nc(C(=O)N4CC5C(N)C5C4)c4c3CCC4)CC2)c1C` (stereo not shown) [Example 196, 2-[3-(6-amino-3-azabicyclo[3.1.0]hexane-3-carbonyl)-5,6-dihydrocyclopenta[c]pyrazol-1(4H)-yl]-1-[4-(2,3-dimethylphenyl)piperazin-1-yl]ethan-1-one], the IC50 came to 103 nM.

With `Cc1cccc(N2CCN(C(=O)Cn3nc(C(=O)N4C[C@@H](C)N[C@@H](C)C4)c4c3CCC4)CC2)c1C` [Example 197, 1-[4-(2,3-dimethylphenyl)piperazin-1-yl]-2-{3-[(3R,5S)-3,5-dimethylpiperazine-1-carbonyl]-5,6-dihydrocyclopenta[c]pyrazol-1(4H)-yl}ethan-1-one], the IC50 turned out to be 11.4 nM.

Values taken from patent publication US12264134B2 (Merck Sharp & Dohme LLC, priority 2018, dated 2025).
